Reference: ChEMBL document CHEMBL5291721, “A preclinical secondary pharmacology resource illuminates target-adverse drug reaction associations of marketed drugs” (Nat Commun, 2023)

What was measured:
[1] = target: T1, Alpha-2A adrenergic receptor (Homo sapiens, UniProt P08913); type: functional, cell-based
T1 sequence (P08913 whole entry): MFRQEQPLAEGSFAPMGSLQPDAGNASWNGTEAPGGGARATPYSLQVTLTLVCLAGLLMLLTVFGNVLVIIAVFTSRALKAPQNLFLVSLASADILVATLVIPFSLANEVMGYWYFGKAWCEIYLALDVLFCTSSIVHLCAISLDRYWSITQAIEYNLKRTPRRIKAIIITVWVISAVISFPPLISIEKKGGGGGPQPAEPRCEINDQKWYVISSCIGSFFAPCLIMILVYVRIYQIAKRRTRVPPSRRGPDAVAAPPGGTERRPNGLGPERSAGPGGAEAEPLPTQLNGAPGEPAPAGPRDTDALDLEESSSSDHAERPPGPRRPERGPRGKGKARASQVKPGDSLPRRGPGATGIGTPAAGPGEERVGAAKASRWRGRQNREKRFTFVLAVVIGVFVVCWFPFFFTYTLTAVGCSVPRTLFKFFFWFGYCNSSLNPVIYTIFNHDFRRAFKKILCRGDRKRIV

[2] = target: Beta-1 adrenergic receptor (Homo sapiens, UniProt P08588); type: functional
B2 bradykinin receptor = target: T2, B2 bradykinin receptor (Homo sapiens, UniProt P30411)
T2 sequence (P30411 whole entry): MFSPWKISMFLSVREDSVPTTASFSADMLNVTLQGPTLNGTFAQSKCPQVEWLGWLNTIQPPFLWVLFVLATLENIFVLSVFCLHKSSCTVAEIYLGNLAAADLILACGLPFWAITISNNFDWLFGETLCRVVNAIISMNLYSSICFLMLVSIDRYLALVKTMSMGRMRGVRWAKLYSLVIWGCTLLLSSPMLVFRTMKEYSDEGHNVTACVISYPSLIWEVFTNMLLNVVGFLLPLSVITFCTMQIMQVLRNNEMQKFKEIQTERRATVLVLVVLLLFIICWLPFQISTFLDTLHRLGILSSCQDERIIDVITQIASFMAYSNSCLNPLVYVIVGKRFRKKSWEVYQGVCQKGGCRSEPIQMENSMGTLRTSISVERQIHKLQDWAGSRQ

[3] = target: Voltage-dependent L-type calcium channel subunit alpha-1C (Rattus norvegicus, UniProt P22002); type: functional
[4] = target: T3, Muscarinic acetylcholine receptor M2 (Homo sapiens, UniProt P08172); type: functional, cell-based
T3 sequence (P08172 whole entry): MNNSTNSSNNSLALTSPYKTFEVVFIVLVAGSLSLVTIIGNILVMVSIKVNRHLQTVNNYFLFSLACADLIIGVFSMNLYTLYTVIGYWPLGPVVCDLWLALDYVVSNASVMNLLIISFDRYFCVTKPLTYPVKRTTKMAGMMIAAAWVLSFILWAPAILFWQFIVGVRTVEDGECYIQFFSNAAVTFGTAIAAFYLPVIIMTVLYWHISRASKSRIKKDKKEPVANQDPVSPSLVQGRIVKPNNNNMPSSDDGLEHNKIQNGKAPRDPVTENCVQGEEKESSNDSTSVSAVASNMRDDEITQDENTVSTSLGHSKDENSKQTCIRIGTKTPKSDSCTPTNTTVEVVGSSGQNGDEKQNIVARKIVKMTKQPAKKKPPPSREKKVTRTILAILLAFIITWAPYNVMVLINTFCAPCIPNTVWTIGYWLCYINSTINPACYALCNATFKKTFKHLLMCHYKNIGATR

Cannabinoid receptor 1 = Cannabinoid receptor 1 (Homo sapiens, UniProt P21554); type: functional, cell-based
Estrogen receptor = target: T4, Estrogen receptor (Homo sapiens, UniProt P03372)
T4 sequence (P03372 whole entry): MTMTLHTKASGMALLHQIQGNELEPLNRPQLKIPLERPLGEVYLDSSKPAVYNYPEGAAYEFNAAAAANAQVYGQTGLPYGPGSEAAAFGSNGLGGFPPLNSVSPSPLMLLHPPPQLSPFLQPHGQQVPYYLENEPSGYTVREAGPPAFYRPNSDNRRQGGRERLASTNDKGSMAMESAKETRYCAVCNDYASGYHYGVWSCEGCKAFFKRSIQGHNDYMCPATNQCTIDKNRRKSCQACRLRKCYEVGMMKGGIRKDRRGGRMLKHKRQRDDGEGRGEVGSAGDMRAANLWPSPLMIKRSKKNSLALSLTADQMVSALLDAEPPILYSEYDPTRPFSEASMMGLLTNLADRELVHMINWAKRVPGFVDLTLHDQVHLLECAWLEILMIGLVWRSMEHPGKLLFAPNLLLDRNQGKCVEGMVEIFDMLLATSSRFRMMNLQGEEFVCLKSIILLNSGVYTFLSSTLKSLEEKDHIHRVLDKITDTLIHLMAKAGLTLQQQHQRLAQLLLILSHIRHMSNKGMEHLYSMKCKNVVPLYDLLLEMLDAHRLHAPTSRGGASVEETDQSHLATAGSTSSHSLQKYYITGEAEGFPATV

[5] = target: Gamma-aminobutyric acid receptor subunit alpha-1 (Rattus norvegicus, UniProt P62813); type: functional
[6] = target: T5, 5-hydroxytryptamine receptor 1A (Homo sapiens, UniProt P08908); type: functional, cell-based
T5 sequence (P08908 whole entry): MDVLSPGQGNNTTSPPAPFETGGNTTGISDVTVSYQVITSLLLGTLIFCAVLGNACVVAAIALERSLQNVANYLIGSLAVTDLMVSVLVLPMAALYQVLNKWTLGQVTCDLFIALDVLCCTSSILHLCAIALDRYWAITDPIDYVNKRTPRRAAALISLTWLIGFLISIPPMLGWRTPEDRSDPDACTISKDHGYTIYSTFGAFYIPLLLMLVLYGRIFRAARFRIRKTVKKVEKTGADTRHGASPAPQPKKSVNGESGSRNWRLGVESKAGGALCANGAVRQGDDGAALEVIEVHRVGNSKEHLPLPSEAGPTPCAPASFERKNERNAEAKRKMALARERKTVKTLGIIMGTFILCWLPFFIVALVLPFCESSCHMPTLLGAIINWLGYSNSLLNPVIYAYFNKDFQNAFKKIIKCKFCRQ

[7] = target: T6, 5-hydroxytryptamine receptor 2B (Homo sapiens, UniProt P41595); type: functional, cell-based
[8] = target: T6, 5-hydroxytryptamine receptor 2B; type: functional, cell-based; remark: listed apart in the source
[9] = target: 3',5'-cyclic-AMP phosphodiesterase 4D (Homo sapiens, UniProt Q08499); type: functional
Vasopressin V1a receptor = Vasopressin V1a receptor (Homo sapiens, UniProt P37288)
Also: assay procedure not described here.

Cannabinoid receptor 1, sequence (P21554 whole entry): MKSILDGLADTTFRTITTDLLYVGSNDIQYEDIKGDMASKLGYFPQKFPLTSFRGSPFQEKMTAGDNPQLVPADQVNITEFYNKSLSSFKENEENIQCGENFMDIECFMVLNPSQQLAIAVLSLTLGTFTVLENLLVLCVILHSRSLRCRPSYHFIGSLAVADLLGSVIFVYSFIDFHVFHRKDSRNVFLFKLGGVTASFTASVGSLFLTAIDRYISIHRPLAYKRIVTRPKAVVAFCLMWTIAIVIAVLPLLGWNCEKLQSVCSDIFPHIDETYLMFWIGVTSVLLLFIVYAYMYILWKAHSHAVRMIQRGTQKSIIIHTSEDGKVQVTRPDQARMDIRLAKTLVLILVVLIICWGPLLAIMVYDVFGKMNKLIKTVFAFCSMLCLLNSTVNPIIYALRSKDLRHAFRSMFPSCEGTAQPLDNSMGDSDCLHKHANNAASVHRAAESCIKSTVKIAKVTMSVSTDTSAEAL
Gamma-aminobutyric acid receptor subunit alpha-1, sequence (P62813 whole entry): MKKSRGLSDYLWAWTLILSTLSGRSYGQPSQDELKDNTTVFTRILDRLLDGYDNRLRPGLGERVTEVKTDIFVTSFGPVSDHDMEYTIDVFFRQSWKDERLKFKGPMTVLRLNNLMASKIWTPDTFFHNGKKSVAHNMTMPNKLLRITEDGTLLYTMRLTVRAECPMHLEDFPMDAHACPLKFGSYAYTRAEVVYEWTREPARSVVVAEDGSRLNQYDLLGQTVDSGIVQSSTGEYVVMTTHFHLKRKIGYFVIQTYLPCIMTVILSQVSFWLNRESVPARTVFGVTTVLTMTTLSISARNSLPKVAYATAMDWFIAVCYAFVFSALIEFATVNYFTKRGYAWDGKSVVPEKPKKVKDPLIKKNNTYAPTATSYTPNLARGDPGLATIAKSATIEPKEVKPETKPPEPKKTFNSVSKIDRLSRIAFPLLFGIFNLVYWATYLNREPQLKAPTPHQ
3',5'-cyclic-AMP phosphodiesterase 4D, sequence (Q08499 whole entry): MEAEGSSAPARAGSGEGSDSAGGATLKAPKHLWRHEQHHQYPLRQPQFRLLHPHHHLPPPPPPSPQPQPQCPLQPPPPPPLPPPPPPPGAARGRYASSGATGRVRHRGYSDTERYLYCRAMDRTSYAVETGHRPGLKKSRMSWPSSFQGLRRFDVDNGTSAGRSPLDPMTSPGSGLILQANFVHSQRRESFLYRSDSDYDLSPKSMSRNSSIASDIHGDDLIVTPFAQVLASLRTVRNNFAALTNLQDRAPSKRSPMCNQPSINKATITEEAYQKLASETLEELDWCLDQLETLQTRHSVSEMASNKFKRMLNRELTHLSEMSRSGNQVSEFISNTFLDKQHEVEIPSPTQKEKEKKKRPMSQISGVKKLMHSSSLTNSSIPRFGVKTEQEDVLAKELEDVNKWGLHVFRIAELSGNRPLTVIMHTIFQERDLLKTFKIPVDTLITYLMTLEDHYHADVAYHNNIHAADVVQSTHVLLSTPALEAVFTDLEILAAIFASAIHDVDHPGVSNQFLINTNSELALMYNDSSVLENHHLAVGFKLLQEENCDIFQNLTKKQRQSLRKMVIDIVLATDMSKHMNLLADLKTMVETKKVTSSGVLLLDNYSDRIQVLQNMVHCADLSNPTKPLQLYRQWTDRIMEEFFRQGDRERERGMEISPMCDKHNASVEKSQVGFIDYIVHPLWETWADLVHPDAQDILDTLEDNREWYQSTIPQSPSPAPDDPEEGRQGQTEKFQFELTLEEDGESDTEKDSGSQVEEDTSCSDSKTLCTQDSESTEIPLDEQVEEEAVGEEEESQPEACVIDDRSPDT
Beta-1 adrenergic receptor, sequence (P08588 whole entry): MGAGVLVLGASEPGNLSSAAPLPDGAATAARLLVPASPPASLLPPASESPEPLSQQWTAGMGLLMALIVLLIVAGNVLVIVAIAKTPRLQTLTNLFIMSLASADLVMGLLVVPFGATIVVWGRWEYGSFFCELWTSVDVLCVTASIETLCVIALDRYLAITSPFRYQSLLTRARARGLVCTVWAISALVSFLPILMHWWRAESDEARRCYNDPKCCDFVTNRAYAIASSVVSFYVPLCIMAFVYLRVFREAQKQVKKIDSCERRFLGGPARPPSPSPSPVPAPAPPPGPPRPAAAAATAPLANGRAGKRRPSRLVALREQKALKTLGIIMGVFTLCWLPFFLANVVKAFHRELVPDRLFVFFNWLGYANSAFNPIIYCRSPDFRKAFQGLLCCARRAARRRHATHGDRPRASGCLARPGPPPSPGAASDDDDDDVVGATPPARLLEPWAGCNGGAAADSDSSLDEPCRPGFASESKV
T6 sequence (P41595 whole entry): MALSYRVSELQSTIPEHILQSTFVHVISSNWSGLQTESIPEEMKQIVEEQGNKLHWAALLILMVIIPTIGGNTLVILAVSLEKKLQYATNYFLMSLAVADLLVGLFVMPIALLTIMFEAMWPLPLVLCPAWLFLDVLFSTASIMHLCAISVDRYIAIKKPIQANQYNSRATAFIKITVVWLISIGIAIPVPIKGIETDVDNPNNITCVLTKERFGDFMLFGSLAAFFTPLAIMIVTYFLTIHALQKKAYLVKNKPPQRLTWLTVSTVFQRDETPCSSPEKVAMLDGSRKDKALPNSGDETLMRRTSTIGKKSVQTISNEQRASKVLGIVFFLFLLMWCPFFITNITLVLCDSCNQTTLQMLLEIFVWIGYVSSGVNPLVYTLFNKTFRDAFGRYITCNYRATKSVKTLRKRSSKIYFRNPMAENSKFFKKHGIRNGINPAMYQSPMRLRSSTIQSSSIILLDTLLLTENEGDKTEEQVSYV
Voltage-dependent L-type calcium channel subunit alpha-1C, sequence (P22002 whole entry): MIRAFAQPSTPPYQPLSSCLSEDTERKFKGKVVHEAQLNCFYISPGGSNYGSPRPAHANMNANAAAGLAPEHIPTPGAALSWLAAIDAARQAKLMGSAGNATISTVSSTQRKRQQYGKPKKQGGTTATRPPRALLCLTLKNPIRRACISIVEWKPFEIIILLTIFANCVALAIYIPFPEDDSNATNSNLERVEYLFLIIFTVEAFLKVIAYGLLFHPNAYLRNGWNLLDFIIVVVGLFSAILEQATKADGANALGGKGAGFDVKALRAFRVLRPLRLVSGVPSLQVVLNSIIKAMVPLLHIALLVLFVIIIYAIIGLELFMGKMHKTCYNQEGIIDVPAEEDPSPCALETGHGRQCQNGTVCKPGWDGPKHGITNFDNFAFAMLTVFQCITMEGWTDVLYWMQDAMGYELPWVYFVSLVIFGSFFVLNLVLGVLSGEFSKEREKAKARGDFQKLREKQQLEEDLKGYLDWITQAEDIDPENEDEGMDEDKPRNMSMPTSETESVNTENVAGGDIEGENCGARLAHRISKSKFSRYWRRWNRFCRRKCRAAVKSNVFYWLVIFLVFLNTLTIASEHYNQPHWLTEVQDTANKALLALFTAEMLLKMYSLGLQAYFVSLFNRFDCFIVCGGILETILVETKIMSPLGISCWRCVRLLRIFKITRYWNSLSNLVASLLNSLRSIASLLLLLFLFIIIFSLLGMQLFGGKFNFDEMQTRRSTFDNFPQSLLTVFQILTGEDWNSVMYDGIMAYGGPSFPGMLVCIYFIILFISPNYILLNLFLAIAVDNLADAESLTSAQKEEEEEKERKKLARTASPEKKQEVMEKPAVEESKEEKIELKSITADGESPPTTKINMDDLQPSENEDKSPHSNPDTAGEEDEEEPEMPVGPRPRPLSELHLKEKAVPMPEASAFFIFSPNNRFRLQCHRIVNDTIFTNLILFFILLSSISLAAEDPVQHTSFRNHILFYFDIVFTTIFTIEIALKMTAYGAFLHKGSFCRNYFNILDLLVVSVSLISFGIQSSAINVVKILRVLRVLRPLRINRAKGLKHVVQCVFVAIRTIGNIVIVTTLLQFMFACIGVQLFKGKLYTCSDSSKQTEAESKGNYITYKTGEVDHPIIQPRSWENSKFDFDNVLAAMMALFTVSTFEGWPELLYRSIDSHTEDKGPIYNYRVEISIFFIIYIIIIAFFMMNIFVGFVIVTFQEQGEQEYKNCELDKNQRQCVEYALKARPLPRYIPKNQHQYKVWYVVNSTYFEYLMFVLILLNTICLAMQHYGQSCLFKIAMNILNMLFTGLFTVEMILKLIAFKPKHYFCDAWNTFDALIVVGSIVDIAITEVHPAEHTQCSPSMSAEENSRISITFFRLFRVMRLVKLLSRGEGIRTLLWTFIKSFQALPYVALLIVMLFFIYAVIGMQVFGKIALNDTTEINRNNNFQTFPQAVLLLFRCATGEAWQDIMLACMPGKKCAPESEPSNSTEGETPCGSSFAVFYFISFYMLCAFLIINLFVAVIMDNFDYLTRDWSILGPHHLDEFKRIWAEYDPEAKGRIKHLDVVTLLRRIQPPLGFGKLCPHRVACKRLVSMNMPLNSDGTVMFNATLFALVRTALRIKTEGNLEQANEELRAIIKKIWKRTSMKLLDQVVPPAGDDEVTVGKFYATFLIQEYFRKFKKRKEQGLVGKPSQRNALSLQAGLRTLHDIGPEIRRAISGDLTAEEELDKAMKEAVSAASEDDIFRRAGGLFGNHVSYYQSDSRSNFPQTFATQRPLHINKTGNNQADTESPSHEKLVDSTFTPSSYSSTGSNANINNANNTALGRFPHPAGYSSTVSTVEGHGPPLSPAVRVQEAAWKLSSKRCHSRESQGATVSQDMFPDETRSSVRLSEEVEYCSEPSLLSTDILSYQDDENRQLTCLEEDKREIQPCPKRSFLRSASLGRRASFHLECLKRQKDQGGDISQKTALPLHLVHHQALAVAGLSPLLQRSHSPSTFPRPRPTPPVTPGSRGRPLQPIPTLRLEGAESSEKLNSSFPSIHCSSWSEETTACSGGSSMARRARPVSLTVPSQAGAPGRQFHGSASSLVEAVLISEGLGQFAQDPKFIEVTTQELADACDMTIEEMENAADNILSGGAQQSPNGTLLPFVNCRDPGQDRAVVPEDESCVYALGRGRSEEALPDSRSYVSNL

| SMILES | AC50 [1] [µM] | AC50 [2] [µM] | AC50 (B2 bradykinin receptor) [µM] | AC50 [3] [µM] | AC50 [4] [µM] | AC50 (Cannabinoid receptor 1) [µM] | AC50 (Estrogen receptor) [µM] | AC50 [5] [µM] | AC50 [6] [µM] | AC50 [7] [µM] | AC50 [8] [µM] | AC50 [9] [µM] | AC50 (Vasopressin V1a receptor) [µM] |
| --- | --- | --- | --- | --- | --- | --- | --- | --- | --- | --- | --- | --- | --- |
| CC(=O)OCC(=O)[C@@]1(O)CC[C@H]2[C@@H]3CCC4=CC(=O)CC[C@]4(C)[C@@]3(F)[C@@H](O)C[C@@]21C [FLUDROCORTISONE ACETATE] | > 30 | > 30 | > 30 | > 30 | > 30 | > 30 | > 30 | > 30 | > 30 | > 30 | > 30 | > 30 |  |
| CN1CCC(=C2c3ccccc3CC(=O)c3sccc32)CC1 [KETOTIFEN] | > 10 |  | > 10 | > 10 | 1.9 | 16 | > 10 | > 10 | > 10 | > 10 | 0.09 | > 30 | > 10 |
| CC(=O)[C@@]1(O)CC[C@H]2[C@@H]3C[C@H](C)C4=CC(=O)C=C[C@]4(C)[C@@]3(F)[C@@H](O)C[C@@]21C [FLUOROMETHOLONE] | > 10 | > 10 | > 10 | > 10 | > 10 | > 30 | > 30 | > 10 | > 10 | > 10 | > 10 | > 30 |  |
| CC1CC(OC(=O)C(O)c2ccccc2)CC(C)(C)C1 (configuration not stated) [CYCLANDELATE] | > 10 | > 10 | > 10 | > 10 | > 10 |  | > 30 | > 10 | > 10 | > 10 | > 10 | > 30 |  |
| O=C1CN=C(c2ccccc2Cl)c2cc([N+](=O)[O-])ccc2N1 [CLONAZEPAM] | > 10 | > 10 | > 30 | > 10 | > 10 |  | > 30 | 0.0025 | > 10 | > 10 | > 10 | > 30 | > 10 |
| CN(Cc1ccc(C(C)(C)C)cc1)Cc1cccc2ccccc12 [BUTENAFINE] | > 10 | > 10 | > 10 | > 10 | > 10 |  | > 30 | > 10 | > 10 | > 10 | > 10 | > 30 |  |
| CC(C)(C)NCC(O)COc1cccc2c1CC(O)C(O)C2 (configuration not stated) [NADOLOL] | > 10 | 0.102 | > 10 | > 10 | > 10 | > 30 | > 10 | > 10 | > 10 | > 10 | > 10 | > 30 |  |
